Data reported in ChEMBL document CHEMBL1909046, “DrugMatrix in vitro pharmacology data”.

Columns and labels:
[1] = target: Beta-1 adrenergic receptor (Homo sapiens, UniProt P08588); assay: DRUGMATRIX: Adrenergic beta1 radioligand binding (ligand: [125I] Cyanopindolol); format: cell membranes, CHO-K1, Membrane; settings: cho-k1; Not Active = under 50% inhibition at 10 µM
Calcitonin receptor = target: T1, Calcitonin receptor (Homo sapiens, UniProt P30988); format: cell membranes, Membrane; settings: t47d; note: in other assays of this panel Not Active means under 50% inhibition at 10 µM
T1 sequence (P30988 whole entry): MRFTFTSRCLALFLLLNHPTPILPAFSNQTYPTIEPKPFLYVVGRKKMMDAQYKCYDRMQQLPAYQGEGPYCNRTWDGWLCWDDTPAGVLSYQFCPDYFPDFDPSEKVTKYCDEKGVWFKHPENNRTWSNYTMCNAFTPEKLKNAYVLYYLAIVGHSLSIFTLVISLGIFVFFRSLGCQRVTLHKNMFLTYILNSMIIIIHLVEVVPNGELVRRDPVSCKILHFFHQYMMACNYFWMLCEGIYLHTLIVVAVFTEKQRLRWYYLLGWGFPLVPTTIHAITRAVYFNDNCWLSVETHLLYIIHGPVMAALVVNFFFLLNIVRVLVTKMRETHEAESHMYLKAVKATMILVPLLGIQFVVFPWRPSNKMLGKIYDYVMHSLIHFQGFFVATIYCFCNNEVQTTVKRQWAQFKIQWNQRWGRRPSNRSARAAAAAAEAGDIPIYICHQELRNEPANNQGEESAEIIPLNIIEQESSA

[2] = target: T2, 5-hydroxytryptamine receptor 2C (Homo sapiens, UniProt P28335); assay: DRUGMATRIX: Serotonin (5-Hydroxytryptamine) 5-HT2C radioligand binding (ligand: [3H] Mesulergine); format: cell membranes, CHO-K1, Membrane; settings: cho-k1; Not Active = under 50% inhibition at 10 µM
T2 sequence (P28335 whole entry): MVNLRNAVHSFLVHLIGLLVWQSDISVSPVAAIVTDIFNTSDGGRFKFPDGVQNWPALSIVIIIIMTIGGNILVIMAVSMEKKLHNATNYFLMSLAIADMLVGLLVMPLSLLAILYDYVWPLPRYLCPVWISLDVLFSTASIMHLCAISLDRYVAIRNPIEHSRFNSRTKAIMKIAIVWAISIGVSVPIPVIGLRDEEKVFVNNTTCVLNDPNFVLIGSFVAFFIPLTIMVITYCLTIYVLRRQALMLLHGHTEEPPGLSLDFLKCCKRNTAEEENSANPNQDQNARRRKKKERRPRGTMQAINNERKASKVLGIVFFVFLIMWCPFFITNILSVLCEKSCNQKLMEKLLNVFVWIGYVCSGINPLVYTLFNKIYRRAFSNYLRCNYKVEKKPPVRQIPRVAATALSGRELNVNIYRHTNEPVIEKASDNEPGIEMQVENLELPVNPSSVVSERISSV

Histamine H2 receptor = Histamine H2 receptor (Homo sapiens, UniProt P25021); format: cell membranes, CHO-K1, Membrane; settings: cho-k1; note: in other assays of this panel Not Active means under 50% inhibition at 10 µM
Leukotriene C4 synthase = target: T3, Leukotriene C4 synthase (Cavia porcellus, UniProt A6XA80); assay: biochemical; format: tissue-based, Lung;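 note: enzyme inhibition assay of leukotriene C4 synthase, using LTA4 as the substrate; in other assays of this panel Not Active means under 50% inhibition at 10 µM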
T3 sequence (A6XA80 whole entry): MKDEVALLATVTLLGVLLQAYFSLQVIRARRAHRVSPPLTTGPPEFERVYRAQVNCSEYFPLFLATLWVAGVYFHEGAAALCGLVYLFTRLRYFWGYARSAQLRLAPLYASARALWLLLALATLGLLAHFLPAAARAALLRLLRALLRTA

Melanocortin receptor 4 = Melanocortin receptor 4 (Homo sapiens, UniProt P32245); format: cell membranes, Membrane; settings: hek293; note: in other assays of this panel Not Active means under 50% inhibition at 10 µM
[3] = target: T4, Muscarinic acetylcholine receptor M4 (Homo sapiens, UniProt P08173); format: cell membranes, CHO-K1, Membrane; settings: cho-k1; note: in other assays of this panel Not Active means under 50% inhibition at 10 µM
T4 sequence (P08173 whole entry): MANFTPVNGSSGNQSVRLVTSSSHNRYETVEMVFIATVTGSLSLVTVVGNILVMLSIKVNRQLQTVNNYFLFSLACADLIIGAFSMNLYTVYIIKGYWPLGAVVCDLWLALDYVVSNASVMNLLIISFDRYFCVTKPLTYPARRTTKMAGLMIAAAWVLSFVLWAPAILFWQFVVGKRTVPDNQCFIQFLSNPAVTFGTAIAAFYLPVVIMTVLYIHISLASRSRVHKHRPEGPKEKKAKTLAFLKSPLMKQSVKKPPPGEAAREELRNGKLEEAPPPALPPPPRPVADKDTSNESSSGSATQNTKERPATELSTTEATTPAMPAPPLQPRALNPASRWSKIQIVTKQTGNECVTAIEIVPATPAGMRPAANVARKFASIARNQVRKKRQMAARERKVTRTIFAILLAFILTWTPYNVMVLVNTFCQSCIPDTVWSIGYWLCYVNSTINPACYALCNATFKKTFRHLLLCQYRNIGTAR

[4] = target: T5, Neuropeptide Y receptor type 1 (Homo sapiens, UniProt P25929); format: cell membranes, Membrane; settings: sk-n-mc; note: in other assays of this panel Not Active means under 50% inhibition at 10 µM
T5 sequence (P25929 whole entry): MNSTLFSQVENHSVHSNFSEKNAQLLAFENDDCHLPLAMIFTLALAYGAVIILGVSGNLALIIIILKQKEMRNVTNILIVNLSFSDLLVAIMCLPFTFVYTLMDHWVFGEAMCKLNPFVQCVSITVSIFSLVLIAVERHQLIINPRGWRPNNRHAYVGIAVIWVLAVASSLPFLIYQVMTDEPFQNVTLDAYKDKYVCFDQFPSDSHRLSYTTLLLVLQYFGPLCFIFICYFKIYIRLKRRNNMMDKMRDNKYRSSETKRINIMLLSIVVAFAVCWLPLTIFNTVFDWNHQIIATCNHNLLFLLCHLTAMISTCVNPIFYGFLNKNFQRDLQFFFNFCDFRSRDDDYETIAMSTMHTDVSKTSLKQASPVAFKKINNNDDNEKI

Mu-type opioid receptor = Mu-type opioid receptor (Homo sapiens, UniProt P35372); assay: DRUGMATRIX: Opiate mu (OP3, MOP) radioligand binding (ligand: [3H] Diprenorphine); format: cell membranes, CHO-K1, Membrane; settings: cho-k1; Not Active = under 50% inhibition at 10 µM
[5] = DRUGMATRIX: Potassium Channel [KATP] radioligand binding (ligand: [3H] Glyburide); format: cell membranes, Membrane; settings: hit-t15; Not Active = under 50% inhibition at 10 µM
[6] = target: Protein kinase C alpha type (Homo sapiens, UniProt P17252); format: cell-based; settings: sf9
Acetylcholinesterase = Acetylcholinesterase (Homo sapiens, UniProt P22303); assay: DRUGMATRIX: Acetylcholinesterase enzyme inhibition (substrate: acetylthiocholine); format: cell-based, HEK293; settings: hek293; Not Active = under 50% inhibition at 10 µM
Adenosine receptor A2a = Adenosine receptor A2a (Homo sapiens, UniProt P29274); assay: DRUGMATRIX: Adenosine A2A radioligand binding (ligand: […]); format: cell membranes, HEK293, Membrane; settings: hek293; Not Active = under 50% inhibition at 10 µM
Chain of Adenosine receptor A2a (P29274 whole entry): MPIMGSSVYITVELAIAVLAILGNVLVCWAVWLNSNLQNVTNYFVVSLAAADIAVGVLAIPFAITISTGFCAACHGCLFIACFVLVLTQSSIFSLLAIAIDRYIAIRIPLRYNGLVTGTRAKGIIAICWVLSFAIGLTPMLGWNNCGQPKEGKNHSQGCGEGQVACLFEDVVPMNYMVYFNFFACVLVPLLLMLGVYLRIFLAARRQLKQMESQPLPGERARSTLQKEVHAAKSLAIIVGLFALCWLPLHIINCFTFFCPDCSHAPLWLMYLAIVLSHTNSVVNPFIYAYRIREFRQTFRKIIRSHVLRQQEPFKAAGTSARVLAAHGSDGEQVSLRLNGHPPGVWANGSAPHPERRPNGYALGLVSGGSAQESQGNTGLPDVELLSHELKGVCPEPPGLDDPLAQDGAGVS

Chain of Histamine H2 receptor (P25021 whole entry): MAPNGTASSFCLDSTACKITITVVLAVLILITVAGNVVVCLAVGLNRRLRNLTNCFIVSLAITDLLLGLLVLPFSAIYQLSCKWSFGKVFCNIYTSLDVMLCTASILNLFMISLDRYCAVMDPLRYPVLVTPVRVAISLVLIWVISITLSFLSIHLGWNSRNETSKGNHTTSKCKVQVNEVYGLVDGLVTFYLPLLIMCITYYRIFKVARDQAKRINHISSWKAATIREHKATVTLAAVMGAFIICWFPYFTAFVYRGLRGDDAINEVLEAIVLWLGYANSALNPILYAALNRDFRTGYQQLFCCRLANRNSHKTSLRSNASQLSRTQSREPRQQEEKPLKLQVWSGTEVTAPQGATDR
Chain of Beta-1 adrenergic receptor (P08588 whole entry): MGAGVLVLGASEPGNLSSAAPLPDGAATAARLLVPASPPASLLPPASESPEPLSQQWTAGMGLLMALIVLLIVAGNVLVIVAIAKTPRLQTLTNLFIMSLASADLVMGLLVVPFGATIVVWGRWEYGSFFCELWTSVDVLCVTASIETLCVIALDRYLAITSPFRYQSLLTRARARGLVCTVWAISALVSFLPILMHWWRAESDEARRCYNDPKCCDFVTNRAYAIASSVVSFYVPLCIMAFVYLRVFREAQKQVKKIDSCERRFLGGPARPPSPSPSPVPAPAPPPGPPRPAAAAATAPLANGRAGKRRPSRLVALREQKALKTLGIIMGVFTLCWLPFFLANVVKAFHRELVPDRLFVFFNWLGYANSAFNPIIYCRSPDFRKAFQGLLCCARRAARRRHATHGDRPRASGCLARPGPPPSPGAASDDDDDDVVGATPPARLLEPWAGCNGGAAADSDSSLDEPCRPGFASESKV
Chain of Mu-type opioid receptor (P35372 whole entry): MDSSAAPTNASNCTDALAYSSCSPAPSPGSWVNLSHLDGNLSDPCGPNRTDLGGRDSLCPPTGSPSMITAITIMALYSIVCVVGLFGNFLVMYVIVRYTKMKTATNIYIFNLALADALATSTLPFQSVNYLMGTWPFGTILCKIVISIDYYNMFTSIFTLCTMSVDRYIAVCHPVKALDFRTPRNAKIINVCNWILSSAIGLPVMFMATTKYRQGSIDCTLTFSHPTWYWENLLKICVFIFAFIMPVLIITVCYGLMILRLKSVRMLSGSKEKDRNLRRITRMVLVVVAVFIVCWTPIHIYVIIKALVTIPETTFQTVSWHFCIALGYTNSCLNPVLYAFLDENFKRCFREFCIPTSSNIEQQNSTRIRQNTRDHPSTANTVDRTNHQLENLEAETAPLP
Chain of Acetylcholinesterase (P22303 whole entry): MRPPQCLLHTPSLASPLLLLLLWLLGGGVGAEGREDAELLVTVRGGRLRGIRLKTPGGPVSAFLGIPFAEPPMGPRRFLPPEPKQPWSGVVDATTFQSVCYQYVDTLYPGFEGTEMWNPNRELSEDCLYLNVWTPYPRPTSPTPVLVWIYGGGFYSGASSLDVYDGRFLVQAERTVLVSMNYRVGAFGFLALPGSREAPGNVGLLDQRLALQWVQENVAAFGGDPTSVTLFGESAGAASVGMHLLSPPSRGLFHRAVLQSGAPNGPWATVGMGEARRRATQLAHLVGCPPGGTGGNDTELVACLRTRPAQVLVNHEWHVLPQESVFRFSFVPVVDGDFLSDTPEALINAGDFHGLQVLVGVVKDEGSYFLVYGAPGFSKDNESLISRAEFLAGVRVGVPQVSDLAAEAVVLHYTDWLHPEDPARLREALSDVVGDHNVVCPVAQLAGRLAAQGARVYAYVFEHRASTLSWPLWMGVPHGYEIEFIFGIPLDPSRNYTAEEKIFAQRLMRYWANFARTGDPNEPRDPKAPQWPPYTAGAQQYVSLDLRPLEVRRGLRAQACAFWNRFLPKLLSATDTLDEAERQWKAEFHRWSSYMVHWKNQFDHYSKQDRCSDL
Chain of Melanocortin receptor 4 (P32245 whole entry): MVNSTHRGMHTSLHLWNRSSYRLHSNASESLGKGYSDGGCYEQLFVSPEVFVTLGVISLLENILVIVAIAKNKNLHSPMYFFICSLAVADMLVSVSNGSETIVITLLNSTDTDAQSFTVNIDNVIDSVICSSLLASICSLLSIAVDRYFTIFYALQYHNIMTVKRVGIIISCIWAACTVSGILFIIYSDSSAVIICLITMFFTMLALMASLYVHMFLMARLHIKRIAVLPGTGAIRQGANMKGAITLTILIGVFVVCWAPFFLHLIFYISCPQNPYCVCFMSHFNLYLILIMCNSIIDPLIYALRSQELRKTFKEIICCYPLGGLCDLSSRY

COc1c(C)c2c(c(O)c1C/C=C(\C)CCC(=O)OCCN1CCOCC1)C(=O)OC2 [MYCOPHENOLATE MOFETIL]
Not Active: IC50 [1] | IC50 (Calcitonin receptor) | IC50 [2] | IC50 (Histamine H2 receptor) | IC50 (Leukotriene C4 synthase) | IC50 (Melanocortin receptor 4) | IC50 [3] | IC50 [4] | IC50 (Mu-type opioid receptor) | IC50 [5] | Ki [5] | IC50 [6] | IC50 (Acetylcholinesterase) | IC50 (Adenosine receptor A2a)

CN[C@H](CC(C)C)C(=O)N[C@H]1C(=O)N[C@@H](CC(N)=O)C(=O)N[C@H]2C(=O)N[C@H]3C(=O)N[C@H](C(=O)N[C@H](C(=O)O)c4cc(O)cc(O)c4-c4cc3ccc4O)[C@H](O)c3ccc(c(Cl)c3)Oc3cc2cc(c3O[C@@H]2O[C@H](CO)[C@@H](O)[C@H](O)[C@H]2O[C@H]2C[C@](C)(N)[C@H](O)[C@H](C)O2)Oc2ccc(cc2Cl)[C@H]1O [VANCOMYCIN]
Not Active: IC50 [1] | IC50 (Calcitonin receptor) | IC50 [2] | IC50 (Histamine H2 receptor) | IC50 (Leukotriene C4 synthase) | IC50 (Melanocortin receptor 4) | IC50 [3] | IC50 [4] | IC50 (Mu-type opioid receptor) | IC50 [5] | Ki [5] | IC50 [6] | IC50 (Acetylcholinesterase) | IC50 (Adenosine receptor A2a)

CC(C)[C@H](N)C(=O)OCCOCn1cnc2c(=O)nc(N)[nH]c21 [VALACYCLOVIR]
Not Active: IC50 [1] | IC50 (Calcitonin receptor) | IC50 [2] | IC50 (Histamine H2 receptor) | IC50 (Leukotriene C4 synthase) | IC50 (Melanocortin receptor 4) | IC50 [3] | IC50 [4] | IC50 (Mu-type opioid receptor) | IC50 [5] | Ki [5] | IC50 [6] | IC50 (Acetylcholinesterase) | IC50 (Adenosine receptor A2a)

COS(C)(=O)=O [METHANESULFONIC ACID METHYL ESTER]
Not Active: IC50 [1] | IC50 (Calcitonin receptor) | IC50 [2] | IC50 (Histamine H2 receptor) | IC50 (Leukotriene C4 synthase) | IC50 (Melanocortin receptor 4) | IC50 [3] | IC50 [4] | IC50 (Mu-type opioid receptor) | IC50 [5] | Ki [5] | IC50 [6] | IC50 (Acetylcholinesterase) | IC50 (Adenosine receptor A2a)

CC1CN(c2cc3c(cc2F)c(=O)c(C(=O)O)cn3-c2ccc(F)cc2F)CCN1 (stereo not given) [TEMAFLOXACIN]
Not Active: IC50 [1] | IC50 (Calcitonin receptor) | IC50 [2] | IC50 (Histamine H2 receptor) | IC50 (Leukotriene C4 synthase) | IC50 (Melanocortin receptor 4) | IC50 [3] | IC50 [4] | IC50 (Mu-type opioid receptor) | IC50 [5] | Ki [5] | IC50 [6] | IC50 (Acetylcholinesterase) | IC50 (Adenosine receptor A2a)

CN(C)[C@@H]1C(O)=C(C(N)=O)C(=O)[C@@]2(O)C(O)=C3C(=O)c4c(O)cccc4[C@@](C)(O)[C@H]3C[C@@H]12 [TETRACYCLINE]
Not Active: IC50 [1] | IC50 (Calcitonin receptor) | IC50 [2] | IC50 (Histamine H2 receptor) | IC50 (Leukotriene C4 synthase) | IC50 (Melanocortin receptor 4) | IC50 [3] | IC50 [4] | IC50 (Mu-type opioid receptor) | IC50 [5] | Ki [5] | IC50 [6] | IC50 (Acetylcholinesterase) | IC50 (Adenosine receptor A2a)

COc1cc(C(=O)NC2CCCNC2)cc(OC)c1OC (stereo not given) [TROXIPIDE]
Not Active: IC50 [1] | IC50 (Calcitonin receptor) | IC50 [2] | IC50 (Histamine H2 receptor) | IC50 (Leukotriene C4 synthase) | IC50 (Melanocortin receptor 4) | IC50 [3] | IC50 [4] | IC50 (Mu-type opioid receptor) | IC50 [5] | Ki [5] | IC50 [6] | IC50 (Acetylcholinesterase) | IC50 (Adenosine receptor A2a)

CC1(C)[C@H]2CC[C@]1(C)C(=O)C2 [(-)-CAMPHOR]
Not Active: IC50 [1] | IC50 (Calcitonin receptor) | IC50 [2] | IC50 (Histamine H2 receptor) | IC50 (Leukotriene C4 synthase) | IC50 (Melanocortin receptor 4) | IC50 [3] | IC50 [4] | IC50 (Mu-type opioid receptor) | IC50 [5] | Ki [5] | IC50 [6] | IC50 (Acetylcholinesterase) | IC50 (Adenosine receptor A2a)

Nc1ccc(S(N)(=O)=O)cc1 [SULFANILAMIDE]
Not Active: IC50 [1] | IC50 (Calcitonin receptor) | IC50 [2] | IC50 (Histamine H2 receptor) | IC50 (Leukotriene C4 synthase) | IC50 (Melanocortin receptor 4) | IC50 [3] | IC50 [4] | IC50 (Mu-type opioid receptor) | IC50 [5] | Ki [5] | IC50 [6] | IC50 (Acetylcholinesterase) | IC50 (Adenosine receptor A2a)

c1ccc2[nH]c(-c3cscn3)nc2c1 [THIABENDAZOLE]
Not Active: IC50 [1] | IC50 (Calcitonin receptor) | IC50 [2] | IC50 (Histamine H2 receptor) | IC50 (Leukotriene C4 synthase) | IC50 (Melanocortin receptor 4) | IC50 [3] | IC50 [4] | IC50 (Mu-type opioid receptor) | IC50 [5] | Ki [5] | IC50 [6] | IC50 (Acetylcholinesterase) | IC50 (Adenosine receptor A2a)
